Tests used:
Rattus norvegicus = species: Rattus norvegicus; test: NADPH-dependent metabolic rate was measured in rat liver microsomal preparations; type: functional
[1] = Half-life for disappearance of compound measured at 37 degree C and pH 7.4 in rat liver microsomal preparations; type: ADME; settings: liver microsomes

| SMILES | Rate (nM (mg of protein)-1) (Rattus norvegicus) | half-life [1] |
| --- | --- | --- |
| O=C(NCCCl)NCCCl | 54 |  |
| O=NN(CCCl)C(=O)NCCCl [CARMUSTINE] | 56 | 1.5 h |

From ChEMBL document CHEMBL1121648, “Metabolism of 1,3-bis(2-chloroethyl)-1-nitrosourea by rat hepatic microsomes” (J Med Chem, 1981)
